Measured values taken from patent US20250147039A1, “Compounds for complexation of rare earth elements and/or s-, p-, d- block metals, their coordination compounds, peptide conjugates, method of their preparation and use thereof” (USTAV ORGANICKE CHEMIE A BIOCHEMIE AV CR V.V.I., priority 2021, published 2025).

Legend:
Assay type in all cases: physicochemical
[1] = Dissociation of chelates in aq. 0.1M HCl at RT (acid decomplexation kinetic inertness) (Chart 20)
[2] = Dissociation of chelates in aq. 1.0M HCl at 80° C. (acid decomplexation kinetic inertness) (Chart 18)
[3] = Dissociation of chelates in aq. 0.1M HCl at 80° C. (acid decomplexation kinetic inertness) (Chart 19)
[4] = Dissociation of chelates in aq. 6.0M HCl at 80° C. (acid decomplexation kinetic inertness) (Chart 17)

SMILES	fraction of intact chelate ([1]; 1 month) [%]	fraction of intact chelate ([1]; 1 week) [%]	fraction of intact chelate ([1]; 1 hour) [%]	fraction of intact chelate ([1]; 1 day) [%]	fraction of intact chelate ([2]; 1 month) [%]	fraction of intact chelate ([2]; 1 week) [%]	fraction of intact chelate ([2]; 1 hour) [%]	fraction of intact chelate ([2]; 1 day) [%]	fraction of intact chelate ([3]; 1 month) [%]	fraction of intact chelate ([3]; 1 week) [%]	fraction of intact chelate ([3]; 1 hour) [%]	fraction of intact chelate ([3]; 1 day) [%]	fraction of intact chelate ([4]; 1 month) [%]	fraction of intact chelate ([4]; 1 week) [%]	fraction of intact chelate ([4]; 1 hour) [%]	fraction of intact chelate ([4]; 1 day) [%]
O=C1C[N@@]2CC[N@]3CC[N@@](CC[N@](CC2)Cc2cccc(n2)-c2cnnn2Cc2cc(-c4ccccc4)cc(n2)C3)CC(=O)[O][Er][O]1 [TD865]	100	100	100	100	99	100	100	100	100	100	100	100	24	71	99	95
O=C1C[N@@]2CC[N@]3CC[N@@](CC[N@](CC2)Cc2cccc(n2)-c2cnnn2Cc2cc(-c4ccccc4)cc(n2)C3)CC(=O)[O][Tb][O]1 [TD600]	100	100	100	100	23	78	99	96	99	99	100	100	0	0	72	0
O=C1C[N@@]2CC[N@]3CC[N@@](CC[N@](CC2)Cc2cccc(n2)-c2cnnn2Cc2cc(-c4ccccc4)cc(n2)C3)CC(=O)[O][Y][O]1 [TD649]	100	100	100	100	92	98	100	100	100	100	100	100	0	7	98	69
O=C1C[N@@]2CC[N@]3CC[N@@](CC[N@](CC2)Cc2cccc(n2)-c2cnnn2Cc2cc(-c4ccccc4)cc(n2)C3)CC(=O)[O][Sm][O]1 [TD867]	96	99	100	100	0	0	62	0	1	35	99	86	0	0	0	0
O=C1C[N@@]2CC[N@]3CC[N@@](CC[N@](CC2)Cc2cccc(n2)-c2cnnn2Cc2cc(-c4ccccc4)cc(n2)C3)CC(=O)[O][Eu][O]1 [TD599]	100	100	100	100	0	0	92	10	21	83	100	97	0	0	0	0
O=C([O-])CN1CCN2CCN(CC(=O)[O-])CCN(CC1)Cc1cccc(n1)-c1cnnn1Cc1cc(-c3ccccc3)cc(n1)C2.[Ca+2] [TD863]	0	0	39	0	0	0	0	0	0	0	0	0	0	0	0	0
O=C1C[N@@]2CC[N@]3CC[N@@](CC[N@](CC2)Cc2cccc(n2)-c2cnnn2Cc2cc(-c4ccccc4)cc(n2)C3)CC(=O)[O][Nd][O]1 [TD868]	2	54	99	90	0	0	0	0	0	0	76	0	0	0	0	0
O=C1C[N@@]2CC[N@]3CC[N@@](CC[N@](CC2)Cc2cccc(n2)-c2cn(nn2)Cc2cc(-c4ccccc4)cc(n2)C3)CC(=O)[O][Cd][O]1 [TD900]	63	91	100	99	0	0	0	0	0	0	56	0	0	0	0	0
O=C1C[N@@]2CC[N@]3CC[N@@](CC[N@](CC2)Cc2cccc(n2)-c2cnnn2Cc2cc(-c4ccccc4)cc(n2)C3)CC(=O)[O][Ho][O]1 [TD648]	100	100	100	100	96	99	100	100	100	100	100	100	0	17	99	81
O=C1C[N@@]2CC[N@]3CC[N@@](CC[N@](CC2)Cc2cccc(n2)-c2cnnn2Cc2cc(-c4ccccc4)cc(n2)C3)CC(=O)[O][Yb][O]1 [TD602]	100	100	100	100	100	100	100	100	100	100	100	100	90	98	100	100
O=C([O-])CN1CCN2CCN(CC(=O)[O-])CCN(CC1)Cc1cccc(n1)-c1cnnn1Cc1cc(-c3ccccc3)cc(n1)C2.[Zn+2] [TD890]	5	54	100	93	0	0	0	0	0	0	46	0	0	0	0	0
O=C1C[N@@]2CC[N@]3CC[N@@](CC[N@](CC2)Cc2cccc(n2)-c2cnnn2Cc2cc(-c4ccccc4)cc(n2)C3)CC(=O)[O][Ce][O]1 [TD870]	0	0	95	37	0	0	0	0	0	0	0	0	0	0	0	0
O=C([O-])CN1CCN2CCN(CC(=O)[O-])CCN(CC1)Cc1cccc(n1)-c1cnnn1Cc1cc(-c3ccccc3)cc(n1)C2.[Pb+2] [TD876]	0	0	6	0	0	0	0	0	0	0	0	0	0	0	0	0
